Experimental data: patent publication US12209145B2, “PCSK9 antagonist compounds” (Merck Sharp & Dohme LLC, priority 2018, dated 2025)

How the values were obtained:
PCSK9 [1] = target: T1, PCSK9 (Homo sapiens, UniProt Q8NBP7); experiment: PCSK9 Alexa FRET Plus TR-FRET assay (displacement of AlexaFluor647 tagged cyclic peptide Reagent B); type: binding; settings: 0.5 nM biotinylated PCSK9, 960 nM AF cyclic peptide Reagent B, Ki calculated from IC50 and KD of AF peptide
T1 construct: Biotinylated PCSK9 was obtained commercially; purchased
Description: (§1) The following is a description of the assays used to determine activity of compounds of the invention, and any comparator compounds reported, toward PCSK9 antagonism. Biotinylated PCSK9 was obtained commercially.
A solution containing 1 nM biotinylated PCSK9+2.5 nM Lance Streptavidin Europium (Strep-Eu) is made in 50 mM HEPES pH 7.4, 0.15 M NaCl, 5 mM CaCl2, 0.01% BSA, and 0.01% Surfactant P20. A separate solution containing 1920 nM of the AlexaFluor tagged cyclic peptide is made in the same buffer system. An Echo is used to transfer 0.075 ul of compound plus 0.675 ul of DMSO to each well of an assay plate followed by the addition of 15 ul of PCSK9+Stept-Eu and 15 ul of AF peptide. The final assay volume is 30.750 ul containing 0.5 nM PCSK9, 1.25 nM Strep-Eu, and 960 nM AF cyclic peptide. The reaction is incubated at room temperature for at least two hours prior to fluorescence measurements using an Envision Multilabel Reader. IC50 values are determined by fitting data to a sigmoidal dose-response curve using nonlinear regression. Ki is then calculated from the IC50 and the KD of AF cyclic peptide. Counts (B-counts) of the europium-labeled PCSK9 are followed to observe if compounds are adversely affecting PCSK9. A fall off of the B-counts is likely indicates a false positive of inhibition. Data from this procedure is reported as “P=‘numerical value’ (nanomolar)”
Activity data obtained by one or both of the above-described procedures is reported for selected example compounds of the invention in the following format: Example No.: A (standard TR Fret)=‘numerical value’; P (Alexa Fret plus standard TR Fret)=‘numerical value’/, note that all values reported are nanomolar.

PCSK9 [2] = target: T1, PCSK9; experiment: PCSK9 Alexa FRET Ultra TR-FRET assay (displacement of AlexaFluor647 tagged cyclic peptide); type: binding; settings: 0.5 nM biotinylated PCSK9, 960 nM AF cyclic peptide, Ki calculated from IC50 and KD of AF peptide
Description: as §1
A solution containing 1 nM biotinylated PCSK9+2.5 nM Lance Streptavidin Europium (Strep-Eu) is made in 50 mM HEPES pH 7.4, 0.15 M NaCl, 5 mM CaCl2, 0.01% BSA, and 0.01% Surfactant P20. A separate solution containing 1920 nM of the AlexaFluor tagged cyclic peptide is made in the same buffer system. An Echo is used to transfer 0.015 ul of compound plus 0.735 ul of DMSO to each well of an assay plate followed by the addition of 15 ul of PCSK9+Stept-Eu and 15 ul of AF peptide. The final assay volume is 30.750 ul containing 0.5 nM PCSK9, 1.25 nM Strep-Eu, and 960 nM AF cyclic peptide. The reaction is incubated at room temperature for at least two hours prior to fluorescence measurements using an Envision Multilabel Reader. IC50 values are determined by fitting data to a sigmoidal dose-response curve using nonlinear regression. Ki is then calculated from the IC50 and the KD of AF cyclic peptide. Counts (B-counts) of the europium-labeled PCSK9 are followed to observe if compounds are adversely affecting PCSK9. A fall off of the B-counts is likely indicates a false positive of inhibition. Data from this procedure is reported as “Ki Ultra=‘numerical value’ (data reported is nanomolar)”

T1 sequence (Q8NBP7 153-692): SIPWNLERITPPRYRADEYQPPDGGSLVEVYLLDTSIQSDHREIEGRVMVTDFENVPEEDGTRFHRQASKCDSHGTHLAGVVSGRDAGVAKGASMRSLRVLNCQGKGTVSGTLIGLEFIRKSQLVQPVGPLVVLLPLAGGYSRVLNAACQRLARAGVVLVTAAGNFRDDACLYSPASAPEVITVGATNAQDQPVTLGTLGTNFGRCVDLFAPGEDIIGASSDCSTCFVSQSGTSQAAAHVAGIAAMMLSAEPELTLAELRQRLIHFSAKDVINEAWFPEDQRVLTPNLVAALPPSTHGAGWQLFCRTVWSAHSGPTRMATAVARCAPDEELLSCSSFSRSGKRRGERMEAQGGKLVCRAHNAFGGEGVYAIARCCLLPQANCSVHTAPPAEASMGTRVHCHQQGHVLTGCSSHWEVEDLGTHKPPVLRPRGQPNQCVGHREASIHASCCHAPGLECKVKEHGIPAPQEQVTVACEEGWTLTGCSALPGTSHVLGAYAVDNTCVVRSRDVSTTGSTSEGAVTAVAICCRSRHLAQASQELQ

Ki (PCSK9 [1]; read-out: Ki Plus) [nM] | Ki (PCSK9 [2]; read-out: Ki Ultra) [nM] | Structure (SMILES) | Ki (PCSK9 [1]; Ki Plus) [nM] | Ki (PCSK9 [2]; Ki Ultra) [nM]
– | – | COc1ccc(C[C@@H]2NC(=O)[C@H]([C@@H](C)O)NC(=O)[C@@H]3[C@@H]4CCN3C(=O)[C@@H]3Cc5cn(c6ccc(F)cc56)CCCCCCN(Cc5ccc(cc5)CCNC(=O)[C@]5(C)CCCN5C2=O)C(=O)CCC(=O)N[C@@H](CCCC[N+](C)(C)C)C(=O)N[C@H](CNC(=O)CCOCCOCC[N+](C)(C)C)C(=O)N[C@@H](Cc2cccc(c2)CNC(=O)CO4)C(=O)N3)cc1 (stereo in doubt) [Ex-24] | 0.00812 | 0.00767
– | – | COc1ccc(C[C@@H]2NC(=O)[C@H]([C@@H](C)O)NC(=O)[C@@H]3[C@@H]4CCN3C(=O)[C@@H]3Cc5cn(c6ccc(F)cc56)CCCCCCN(Cc5ccc(cc5)CCNC(=O)[C@]5(C)CCCN5C2=O)C(=O)CCC(=O)N[C@@H](C)C(=O)N[C@H](CN)C(=O)N[C@@H](Cc2cccc(c2)CNC(=O)CO4)C(=O)N3)cc1 [Ex-01] | < 0.00558 | 0.0046
≤ 0.00558 | 0.00471 | COc1ccc(C[C@@H]2NC(=O)[C@H]([C@@H](C)O)NC(=O)[C@@H]3[C@@H]4CCN3C(=O)[C@@H]3Cc5cn(c6ccc(F)cc56)C/C=C\CCCN(Cc5ccc(cc5)CCNC(=O)[C@]5(C)CCCN5C2=O)C(=O)CCC(=O)N[C@@H](CNC(=O)CCOCCOCC[N+](C)(C)C)C(=O)N[C@H](C)C(=O)N[C@@H](Cc2cccc(c2)CNC(=O)CO4)C(=O)N3)cc1 [Ex-04] | – | –
0.00962 | 0.033 | COc1ccc(C[C@@H]2NC(=O)[C@H]([C@@H](C)O)NC(=O)[C@@H]3[C@@H]4CCN3C(=O)[C@@H]3Cc5cn(c6ccc(F)cc56)C/C=C/CCCN(Cc5ccc(cc5)CCNC(=O)[C@]5(C)CCCN5C2=O)C(=O)CCC(=O)N[C@@H](CNC(=O)CCOCCOCC[N+](C)(C)C)C(=O)N[C@H](C)C(=O)N[C@@H](Cc2cccc(c2)CNC(=O)CO4)C(=O)N3)cc1 [Ex-05] | – | –
0.00568 | 0.00342 | COc1ccc(C[C@@H]2NC(=O)[C@H]([C@@H](C)O)NC(=O)[C@@H]3[C@@H]4CCN3C(=O)[C@@H]3Cc5cn(c6ccc(F)cc56)C/C=C/CCCN(Cc5ccc(cc5)CCNC(=O)[C@]5(C)CCCN5C2=O)C(=O)CCC(=O)N[C@@H](C)C(=O)N[C@H](CNC(=O)CCCCC[N+](C)(C)C)C(=O)N[C@@H](Cc2cccc(c2)CNC(=O)CO4)C(=O)N3)cc1 [Ex-06] | – | –
0.0591 | 0.0675 | COc1ccc(C[C@@H]2NC(=O)[C@H]([C@@H](C)O)NC(=O)[C@@H]3[C@@H]4CCN3C(=O)[C@@H]3Cc5cn(c6ccc(F)cc56)C/C=C/CCCN(Cc5ccc(cc5)CCNC(=O)[C@]5(C)CCCN5C2=O)C(=O)CCC(=O)N[C@H]2CN(C(=O)CCOCCOCC[N+](C)(C)C)CCCCC(=O)NC[C@@H](NC2=O)C(=O)N[C@@H](Cc2cccc(c2)CNC(=O)CO4)C(=O)N3)cc1 [Ex-07] | – | –
– | – | COc1ccc(C[C@@H]2NC(=O)[C@H]([C@@H](C)O)NC(=O)[C@@H]3[C@@H]4CCN3C(=O)[C@@H]3Cc5cn(c6ccc(F)cc56)Cc5cn(nn5)Cc5cc(ccc5CNC(=O)CCC(=O)N[C@@H](C)C(=O)N[C@H](CNC(=O)CCOCCOCC[N+](C)(C)C)C(=O)N[C@@H](Cc5cccc(c5)CNC(=O)CO4)C(=O)N3)CCNC(=O)[C@]3(C)CCCN3C2=O)cc1 [Ex-09] | 0.0919 | 0.247
0.00574 | 0.0249 | COc1ccc(C[C@@H]2NC(=O)[C@H]([C@@H](C)O)NC(=O)[C@@H]3[C@@H]4CCN3C(=O)[C@@H]3Cc5cn(c6ccc(F)cc56)Cc5cn(nn5)C[C@@H](NC(=O)CCC(=O)N[C@@H](C)C(=O)N[C@H](CNC(=O)CCOCCOCC[N+](C)(C)C)C(=O)N[C@@H](Cc5cccc(c5)CNC(=O)CO4)C(=O)N3)c3ccc(cc3)CCNC(=O)[C@]3(C)CCCN3C2=O)cc1 [Ex-10] | – | –
0.0433 | 0.207 | COc1ccc(C[C@@H]2NC(=O)[C@H]([C@@H](C)O)NC(=O)[C@@H]3[C@@H]4CCN3C(=O)[C@@H]3Cc5cn(c6ccc(F)cc56)Cc5cn(nn5)C[C@@H](NC(=O)CCC(=O)N[C@@H](CNC(=O)CCOCCOCC[N+](C)(C)C)C(=O)N[C@H](C)C(=O)N[C@@H](Cc5cccc(c5)CNC(=O)CO4)C(=O)N3)c3ccc(cc3)CCNC(=O)[C@]3(C)CCCN3C2=O)cc1 [Ex-11] | – | –
0.0145 | 0.0225 | COc1ccc(C[C@@H]2NC(=O)[C@H]([C@@H](C)O)NC(=O)[C@@H]3[C@@H]4CCN3C(=O)[C@@H]3Cc5cn(c6ccc(F)cc56)Cc5cn(nn5)CC(NC(=O)CCCCCC(=O)N[C@H](CNC(=O)CCOCCOCC[N+](C)(C)C)C(=O)N[C@@H](Cc5cccc(c5)CNC(=O)CO4)C(=O)N3)c3ccc(cc3)CCNC(=O)[C@]3(C)CCCN3C2=O)cc1 [Ex-12] | – | –
0.145 | 0.477 | COc1ccc(C[C@@H]2NC(=O)[C@H]([C@@H](C)O)NC(=O)[C@@H]3[C@@H]4CCN3C(=O)[C@@H]3Cc5cn(c6ccc(F)cc56)Cc5cn(nn5)CCN(Cc5ccc(cc5)CCNC(=O)[C@]5(C)CCCN5C2=O)C(=O)CCC(=O)N[C@@H](CNC(=O)CCOCCOCC[N+](C)(C)C)C(=O)N[C@H](C)C(=O)N[C@@H](Cc2cccc(c2)CNC(=O)CO4)C(=O)N3)cc1 [Ex-13] | – | –
0.016 | 0.021 | COc1ccc(C[C@@H]2NC(=O)[C@H]([C@@H](C)O)NC(=O)[C@@H]3[C@@H]4CCN3C(=O)[C@@H]3Cc5cn(c6ccc(F)cc56)Cc5cn(nn5)CCN(Cc5ccc(cc5)CCNC(=O)[C@]5(C)CCCN5C2=O)C(=O)CCC(=O)N[C@@H](C)C(=O)N[C@H](CNC(=O)CCOCCOCC[N+](C)(C)C)C(=O)N[C@@H](Cc2cccc(c2)CNC(=O)CO4)C(=O)N3)cc1 [Ex-14] | – | –
0.103 | 0.26 | COc1ccc(C[C@@H]2NC(=O)[C@H]([C@@H](C)O)NC(=O)[C@@H]3[C@@H]4CCN3C(=O)[C@@H]3Cc5cn(c6ccc(F)cc56)Cc5cn(nn5)CCN(Cc5ccc(cc5)CCNC(=O)[C@]5(C)CCCN5C2=O)C(=O)CCCC(=O)N[C@@H](CNC(=O)CCOCCOCC[N+](C)(C)C)C(=O)N[C@H](C)C(=O)N[C@@H](Cc2cccc(c2)CNC(=O)CO4)C(=O)N3)cc1 [Ex-15] | – | –
0.0142 | 0.0514 | COc1ccc(C[C@@H]2NC(=O)[C@H]([C@@H](C)O)NC(=O)[C@@H]3[C@@H]4CCN3C(=O)[C@@H]3Cc5cn(c6ccc(F)cc56)Cc5cn(nn5)CCN(Cc5ccc(cc5)CCNC(=O)[C@]5(C)CCCN5C2=O)C(=O)CCCCCC(=O)N[C@H](CNC(=O)CCOCCOCC[N+](C)(C)C)C(=O)N[C@@H](Cc2cccc(c2)CNC(=O)CO4)C(=O)N3)cc1 [Ex-16] | – | –
≤ 0.00558 | – | COc1ccc(C[C@@H]2NC(=O)[C@H]([C@@H](C)O)NC(=O)[C@@H]3[C@@H]4CCN3C(=O)[C@@H]3Cc5cn(c6ccc(F)cc56)CCCCN(Cc5ccc(cc5)CCNC(=O)[C@]5(C)CCCN5C2=O)C(=O)CCC(=O)N[C@@H](C)C(=O)N[C@H](CNC(=O)CCOCCOCC[N+](C)(C)C)C(=O)N[C@@H](Cc2cccc(c2)CNC(=O)CO4)C(=O)N3)cc1 [Ex-28] | – | –
– | – | COc1ccc(C[C@@H]2NC(=O)[C@H]([C@@H](C)O)NC(=O)[C@@H]3[C@@H]4CCN3C(=O)[C@@H]3Cc5cn(c6ccc(F)cc56)CCCCCCN(Cc5ccc(cc5)CCNC(=O)[C@]5(C)CCCN5C2=O)C(=O)CCC(=O)N[C@@H](C)C(=O)N[C@H](CNC(=O)CCOCC[N+](C)(C)C)C(=O)N[C@@H](Cc2cccc(c2)CNC(=O)CO4)C(=O)N3)cc1 [Ex-31] | < 0.00558 | –

Structure (SMILES) | Ki (PCSK9 [1]; read-out: Ki Plus) [nM] | Ki (PCSK9 [2]; read-out: Ki Ultra) [nM] | Ki (PCSK9 [1]; Ki Plus) [nM] | Ki (PCSK9 [2]; Ki Ultra) [nM]
COc1ccc(C[C@@H]2NC(=O)[C@H]([C@@H](C)O)NC(=O)[C@@H]3[C@@H]4CCN3C(=O)[C@@H]3Cc5cn(c6ccc(F)cc56)Cc5cn(nn5)Cc5cc(ccc5CNC(=O)CCC(=O)N[C@@H](C)C(=O)N[C@H](CNC(=O)CCOCCOCC[N+](C)(C)C)C(=O)N[C@@H](Cc5cccc(c5)CNC(=O)CO4)C(=O)N3)CCNC(=O)[C@]3(C)CCCN3C2=O)cc1 [Ex-08] | 0.0157 | 0.0683 | – | –
